In paper PMC10649961, “Novel Mitochondria-Targeted Amphiphilic Aminophosphonium Salts and Lipids Nanoparticles: Synthesis, Antitumor Activity and Toxicity” (Nanomaterials, 2023):
Where two headings read alike, the source gives them in different places.

Assays:
PANC-1 [1] = experiment: cells; conditions: Homo sapiens, PANC-1, 48 h, read-out: Cytotoxic Effects (IC50)
A549 [2] = experiment: cells; conditions: Homo sapiens, A549, 48 h, read-out: Cytotoxic Effects (IC50)
DU-145 [3] = experiment: cells; conditions: Homo sapiens, DU-145, 48 h, read-out: Cytotoxic Effects (IC50), DU-145, MTT assay, 48 h
MRSA-2 = experiment: Antimicrobial activity, serial microdilutions, MRSA-2; type: cell-based, S. aureus; conditions: Staphylococcus aureus; for MIC: read-out: Minimum Inhibitory Concentration (MIC); for MBC: read-out: Minimum bactericidal and fungicidal concentrations (MBC, MFC)
Procedure: (§1) The antimicrobial activity of test compounds was determined by serial microdilutions in 96-well plates using Mueller-Hinton broth for bacterial culture and Sabouraud broth for yeast culture. Cultures of Gram-positive bacteria were used in the experiment: Staphylococcus aureus ATCC 6538 P FDA 209P, Bacillus cereus ATCC 10702 NCTC 8035, Enterococcus faecalis ATCC 29212; Gram-negative bacteria: Escherichia coli ATCC 25922, Pseudomonas aeruginosa ATCC 9027; and yeast: Candida albicans ATCC 10231, purchased from the State Collection of Pathogenic Microorganisms and Cell Cultures “SCPM-Obolensk” (Obolensk, Russia). Methicillin-resistant strains of S. aureus (MRSA) were isolated from patients with chronic tonsillitis (MRSA-1) and sinusitis (MRSA-2) in the bacteriological laboratory of the Republican Clinical Hospital (Kazan, Russia). The experiments were carried out in triplicate.

M-HeLa [4] = experiment: cells; conditions: Homo sapiens, 48 h, read-out: Cytotoxic Effects (IC50)
HuTu 80 [5] = test system: HuTu 80
[6] = test system: Staphylococcus aureus ATCC 6538 P FDA 209P; experiment: Antimicrobial activity, serial microdilutions, Sa; type: cell-based; conditions: Staphylococcus aureus; for MIC: read-out: Minimum Inhibitory Concentration (MIC); for MBC: read-out: Minimum bactericidal and fungicidal concentrations (MBC, MFC)
Procedure: as §1

PC3 [7] = experiment: cells; conditions: Homo sapiens, PC-3, 48 h, read-out: Cytotoxic Effects (IC50), PC3, MTT assay, 48 h
M-HeLa [8] = test system: M-HeLa
T98G [9] = experiment: cells; conditions: Homo sapiens, 48 h, read-out: Cytotoxic Effects (IC50)
T98G [10] = conditions: calculated relative to the cell line Chang liver (b)
HuTu 80 [11] = experiment: cells; conditions: Homo sapiens, HuTu80, 48 h, read-out: Cytotoxic Effects (IC50)
PC3 [12] = test system: PC3
[13] = test system: Candida albicans ATCC 10231; experiment: Antimicrobial activity, serial microdilutions, Ca; type: cell-based; parameters: key to Minimum Inhibitory Concentration (MIC) / Minimum bactericidal and fungicidal concentrations (MBC, MFC): – means non-active
Procedure: as §1

Hep G2 [14] = conditions: calculated relative to the cell line Chang liver (b)
MCF-7 [15] = experiment: cells; conditions: Homo sapiens, MCF7, 48 h, read-out: Cytotoxic Effects (IC50)
[16] = test system: Pseudomonas aeruginosa ATCC 9027; experiment: Antimicrobial activity, serial microdilutions, Pa; type: cell-based; parameters: key to Minimum Inhibitory Concentration (MIC) / Minimum bactericidal and fungicidal concentrations (MBC, MFC): – means non-active; conditions: for MBC: ATCC9027, read-out: Minimum bactericidal and fungicidal concentrations (MBC, MFC)
Procedure: as §1

SK-OV-3 [17] = experiment: cells; conditions: Homo sapiens, SK-OV-3, 48 h, read-out: Cytotoxic Effects (IC50)
[18] = test system: Enterococcus faecalis ATCC 29212; experiment: Antimicrobial activity, serial microdilutions, Ef; type: cell-based; conditions: Enterococcus faecalis; for MIC: ATCC29212, read-out: Minimum Inhibitory Concentration (MIC); for MBC: ATCC29212, read-out: Minimum bactericidal and fungicidal concentrations (MBC, MFC)
Procedure: as §1

Hep G2 [19] = experiment: cells; conditions: Homo sapiens, HepG2, 48 h, read-out: Cytotoxic Effects (IC50)
MRSA-1 = experiment: Antimicrobial activity, serial microdilutions, MRSA-1; type: cell-based, S. aureus; conditions: Staphylococcus aureus; for MIC: read-out: Minimum Inhibitory Concentration (MIC); for MBC: read-out: Minimum bactericidal and fungicidal concentrations (MBC, MFC)
Procedure: as §1

MCF-7 [20] = conditions: calculated relative to the cell line Chang liver (b)
A549 [21] = conditions: reference normal cell line not marked at the place (ns cells)
PANC-1 [22] = test system: PANC-1
[23] = test system: Bacillus cereus ATCC 10702 NCTC 8035; experiment: Antimicrobial activity, serial microdilutions, Bc; type: cell-based; conditions: Bacillus cereus; for MIC: Bc, read-out: Minimum Inhibitory Concentration (MIC); for MBC: read-out: Minimum bactericidal and fungicidal concentrations (MBC, MFC)
Procedure: as §1

[24] = test system: Escherichia coli ATCC 25922; experiment: Antimicrobial activity, serial microdilutions, Ec; type: cell-based; conditions: Escherichia coli; for MIC: ATCC25922, read-out: Minimum Inhibitory Concentration (MIC); for MBC: ATCC25922, read-out: Minimum bactericidal and fungicidal concentrations (MBC, MFC)
Procedure: as §1

SK-OV-3 [25] = conditions: reference normal cell line not marked at the place (ns cells)
DU-145 [26] = conditions: calculated relative to the cell line Chang liver (b)
[27] = calculated relative to the cell line Chang liver (b)
[28] = reference normal cell line not marked at the place (ns cells)

**Q.** How did the IC50 (PANC-1 [1]) turn out when CCCCCCCCC[P+](c1ccccc1)(N(CC)CC)N(CC)CC [5c, Bis(diethylamino)(nonyl)(phenyl)phosphonium iodide] was run?
**A.** 2800 ± 200 nM

**Q.** And the IC50 (A549 [2])?
**A.** 8.7 ± 0.7 µM

**Q.** And the IC50 (DU-145 [3])?
**A.** 900 ± 70 nM

**Q.** And the MIC (MRSA-2)?
**A.** 3.9 ± 0.4 µM

**Q.** And the MBC (MRSA-2)?
**A.** 62.5 ± 5.4 µM

**Q.** What about the IC50 (M-HeLa [4]) of the same compound?
**A.** 1700 ± 100 nM

**Q.** And the “selectivity index (SI)” value (HuTu 80 [5]; [27])?
**A.** 1.5

**Q.** What about the MIC [6] of the same compound?
**A.** 3.9 ± 0.3 µM

**Q.** What about the MBC [6] of the same compound?
**A.** 125 ± 10 µM

**Q.** And the IC50 (PC3 [7])?
**A.** 10 ± 0.9 µM

**Q.** And the “selectivity index (SI)” value (M-HeLa [8]; [27])?
**A.** 2.4

**Q.** What about the IC50 (T98G [9]) of the same compound?
**A.** 2700 ± 300 nM

**Q.** And the “selectivity index (SI)” value (T98G [10])?
**A.** 1.5

**Q.** And the IC50 (HuTu 80 [11])?
**A.** 2800 ± 300 nM

**Q.** What about the “selectivity index (SI)” value (PC3 [12]; [28]) of the same compound?
**A.** ns (ns—no selectivity)

**Q.** What about the “Minimum Inhibitory Concentration (MIC)” value ([13]; Ca) of the same compound?
**A.** –

**Q.** And the “Minimum bactericidal and fungicidal concentrations (MBC, MFC)” value ([13]; Ca)?
**A.** –

**Q.** What about the “selectivity index (SI)” value (Hep G2 [14]) of the same compound?
**A.** 1.8

**Q.** What about the IC50 (MCF-7 [15]) of the same compound?
**A.** 3100 ± 200 nM

**Q.** What about the “Minimum Inhibitory Concentration (MIC)” value [16] of the same compound?
**A.** –

**Q.** What about the MBC ([16]; Pseudomonas aeruginosa) of the same compound?
**A.** > 500 µM

**Q.** And the IC50 (SK-OV-3 [17])?
**A.** 14.8 ± 1.2 µM

**Q.** And the MIC [18]?
**A.** 31.3 ± 2.2 µM

**Q.** What about the MBC [18] of the same compound?
**A.** 500 ± 48 µM

**Q.** And the IC50 (Hep G2 [19])?
**A.** 2300 ± 100 nM

**Q.** And the MIC (MRSA-1)?
**A.** 3.9 ± 0.3 µM

**Q.** And the MBC (MRSA-1)?
**A.** 62.5 ± 5.5 µM

**Q.** And the “selectivity index (SI)” value (MCF-7 [20])?
**A.** 1.3

**Q.** What about the “selectivity index (SI)” value (A549 [21]) of the same compound?
**A.** ns (ns—no selectivity)

**Q.** What about the “selectivity index (SI)” value (PANC-1 [22]; [27]) of the same compound?
**A.** 1.5

**Q.** What about the MIC [23] of the same compound?
**A.** 3.9 ± 0.3 µM

**Q.** And the MBC [23]?
**A.** 500 ± 48 µM

**Q.** And the MIC [24]?
**A.** 250 ± 19 µM

**Q.** What about the MBC [24] of the same compound?
**A.** 500 ± 48 µM

**Q.** What about the “selectivity index (SI)” value (SK-OV-3 [25]) of the same compound?
**A.** ns (ns—no selectivity)

**Q.** What about the “selectivity index (SI)” value (DU-145 [26]) of the same compound?
**A.** 4.6

**Q.** Which IC50 (PANC-1 [1]) does the source give for CCCCCCCCCC[P+](c1ccccc1)(N(CC)CC)N(CC)CC [5d, Decylbis(diethylamino)(phenyl)phosphonium iodide] here?
**A.** 1400 ± 100 nM

**Q.** And the IC50 (A549 [2])?
**A.** 8.9 ± 0.7 µM

**Q.** And the IC50 (DU-145 [3])?
**A.** 450 ± 30 nM

**Q.** What about the MIC (MRSA-2) of the same compound?
**A.** 0.9 ± 0.08 µM

**Q.** What about the MBC (MRSA-2) of the same compound?
**A.** 62.5 ± 5.2 µM

**Q.** What about the IC50 (M-HeLa [4]) of the same compound?
**A.** 1500 ± 100 nM

**Q.** And the “selectivity index (SI)” value (HuTu 80 [5]; [28])?
**A.** ns (ns—no selectivity)

**Q.** And the MIC [6]?
**A.** 0.9 ± 0.07 µM

**Q.** What about the MBC [6] of the same compound?
**A.** 125 ± 9 µM

**Q.** And the IC50 (PC3 [7])?
**A.** 0.8 ± 0.06 µM

**Q.** And the “selectivity index (SI)” value (M-HeLa [8]; [28])?
**A.** ns (ns—no selectivity)

**Q.** What about the IC50 (T98G [9]) of the same compound?
**A.** 700 ± 50 nM

**Q.** What about the “selectivity index (SI)” value (T98G [10]) of the same compound?
**A.** 1.9

**Q.** What about the IC50 (HuTu 80 [11]) of the same compound?
**A.** 2500 ± 100 nM

**Q.** What about the “selectivity index (SI)” value (PC3 [12]; [27]) of the same compound?
**A.** 1.6

**Q.** What about the “Minimum bactericidal and fungicidal concentrations (MBC, MFC)” value ([13]; Ca) of the same compound?
**A.** –

**Q.** And the MIC ([13]; Candida albicans, ATCC10231, read-out: Minimum Inhibitory Concentration (MIC))?
**A.** 250 ± 21 µM

**Q.** What about the “selectivity index (SI)” value (Hep G2 [14]) of the same compound?
**A.** 1.2

**Q.** What about the IC50 (MCF-7 [15]) of the same compound?
**A.** 700 ± 60 nM

**Q.** What about the MIC ([16]; Pseudomonas aeruginosa, ATCC9027, read-out: Minimum Inhibitory Concentration (MIC)) of the same compound?
**A.** 500 ± 48 µM

**Q.** And the MBC ([16]; Pseudomonas aeruginosa)?
**A.** 500 ± 47 µM

**Q.** And the IC50 (SK-OV-3 [17])?
**A.** 10 ± 0.8 µM

**Q.** What about the MIC [18] of the same compound?
**A.** 15.6 ± 1.2 µM

**Q.** What about the MBC [18] of the same compound?
**A.** 125 ± 9 µM

**Q.** And the IC50 (Hep G2 [19])?
**A.** 1100 ± 90 nM

**Q.** And the MIC (MRSA-1)?
**A.** 0.9 ± 0.08 µM

**Q.** What about the MBC (MRSA-1) of the same compound?
**A.** 125 ± 11 µM

**Q.** And the “selectivity index (SI)” value (MCF-7 [20])?
**A.** 1.9

**Q.** And the “selectivity index (SI)” value (A549 [21])?
**A.** ns (ns—no selectivity)

**Q.** What about the “selectivity index (SI)” value (PANC-1 [22]; [28]) of the same compound?
**A.** ns (ns—no selectivity)

**Q.** What about the MIC [23] of the same compound?
**A.** 0.9 ± 0.08 µM

**Q.** What about the MBC [23] of the same compound?
**A.** 500 ± 47 µM

**Q.** What about the MIC [24] of the same compound?
**A.** 62.5 ± 5.4 µM

**Q.** And the MBC [24]?
**A.** 62.5 ± 5.3 µM

**Q.** And the “selectivity index (SI)” value (SK-OV-3 [25])?
**A.** ns (ns—no selectivity)

**Q.** And the “selectivity index (SI)” value (DU-145 [26])?
**A.** 2.9
